Measurements reported in US20250170130A1, “MODULATORS OF MYC FAMILY PROTO-ONCOGENE PROTEIN” (Nalo Therapeutics, priority 2022, published 2025).
Where two headings read alike, the source gives them in different places.

How the values were obtained:
[1] = target: T1, MycN (Homo sapiens, UniProt P04198); test: Degradation of MycN protein in SK-N-BE(2) cells, JESS/Western blot of lysates; type: cell-based; settings: SKNBE2, 24 h; for Dmax at 0.5 µM: read-out: % Degradation of MycN (SKNBE2) 24 h, 0.5 μM; for Dmax at 1 µM: read-out: % Degradation of MycN (SKNBE2) 24 h, 1 μM; for Dmax at 3 µM: read-out: % Degradation of MycN (SKNBE2) 24 h, 3 μM; for Dmax at 6 µM: read-out: % Degradation of MycN (SKNBE2) 24 h, 6 μM
T1 construct: endogenous in cells; host or cells: SK-N-BE(2)
T1 sequence (P04198 1-464): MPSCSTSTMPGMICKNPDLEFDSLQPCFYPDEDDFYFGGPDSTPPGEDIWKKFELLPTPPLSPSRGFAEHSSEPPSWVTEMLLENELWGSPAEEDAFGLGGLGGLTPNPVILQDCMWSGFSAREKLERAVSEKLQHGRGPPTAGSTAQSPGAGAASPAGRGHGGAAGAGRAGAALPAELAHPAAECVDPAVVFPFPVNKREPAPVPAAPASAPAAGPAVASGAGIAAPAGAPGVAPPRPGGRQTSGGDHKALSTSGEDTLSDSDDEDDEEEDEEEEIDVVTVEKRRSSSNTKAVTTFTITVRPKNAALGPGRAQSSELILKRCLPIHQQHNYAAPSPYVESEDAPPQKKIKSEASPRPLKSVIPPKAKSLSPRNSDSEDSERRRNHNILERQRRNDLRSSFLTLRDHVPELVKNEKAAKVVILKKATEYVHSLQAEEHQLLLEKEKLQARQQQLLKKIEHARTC
Outline: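 SK-N-BE(2) adherent cells (5E5 per well of a 6 well dish) were grown 24 hrs, then exposed to compounds diluted 1 in 20 in media, with DMSO controls, for 24 hrs. Cells were scraped, pelleted, PBS washed and lysed in RIPA buffer cocktail; after BCA protein quantitation, n-myc was detected by chemiluminescence on JESS/Western blot with tubulin and GAPDH loading controls read in the near infra red channel.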

[2] = target: T2, MycC (Homo sapiens, UniProt P01106); test: Degradation of MycC protein in L363 cells, JESS/Western blot of lysates; type: cell-based; settings: L-363, 24 h; for Dmax at 1 µM: read-out: % Degradation of MycC (L-363) 24 h, 1 μM; for Dmax at 3 µM: read-out: % Degradation of MycC (L-363) 24 h, 3 μM; for Dmax at 6 µM: read-out: % Degradation of MycC (L-363) 24 h, 6 μM; for Dmax at 0.5 µM: read-out: % Degradation of MycC (L-363) 24 h, 0.5 μM
T2 construct: endogenous in cells; host or cells: L363
Outline: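 L363 suspension cells were seeded at 1E6 cells per well and exposed to compound (stock 10 mM in DMSO) for 24 hrs. Cells were collected, spun down, rinsed with PBS, lysed in RIPA buffer cocktail on ice, clarified and kept at −80 degrees. Lysate protein was quantified by BCA, and c-myc was measured on JESS by chemiluminescence with tubulin and GAPDH loading controls in the NIR channel.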

T2 sequence (P01106 whole entry): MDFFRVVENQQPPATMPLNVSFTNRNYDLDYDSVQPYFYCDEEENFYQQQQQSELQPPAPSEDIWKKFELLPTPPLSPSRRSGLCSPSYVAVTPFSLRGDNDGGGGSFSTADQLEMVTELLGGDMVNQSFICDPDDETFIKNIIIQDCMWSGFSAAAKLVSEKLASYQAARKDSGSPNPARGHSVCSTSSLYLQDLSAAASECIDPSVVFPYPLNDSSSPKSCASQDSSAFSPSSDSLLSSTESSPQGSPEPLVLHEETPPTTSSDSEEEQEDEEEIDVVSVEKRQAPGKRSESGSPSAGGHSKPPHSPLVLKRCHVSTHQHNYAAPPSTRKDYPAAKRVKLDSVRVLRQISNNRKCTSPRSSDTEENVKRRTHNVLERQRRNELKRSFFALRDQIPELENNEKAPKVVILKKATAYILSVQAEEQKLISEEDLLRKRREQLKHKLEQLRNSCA

| Compound | Dmax at 0.5 µM ([1]; SKNBE2 cells, 24 h, 0.5 μM) [%] | Dmax at 1 µM ([1]; SKNBE2 cells, 24 h, 1 μM) [%] | Dmax at 3 µM ([1]; SKNBE2 cells, 24 h, 3 μM) [%] | Dmax at 6 µM ([1]; SKNBE2 cells, 24 h, 6 μM) [%] | Dmax at 1 µM ([2]; L-363 cells, 24 h, 1 μM) [%] | Dmax at 3 µM ([2]; L-363 cells, 24 h, 3 μM) [%] | Dmax at 6 µM ([2]; L-363 cells, 24 h, 6 μM) [%] | Dmax at 0.5 µM ([2]; L-363 cells, 24 h, 0.5 μM) [%] | Dmax at 0.5 µM [1] [%] | Dmax at 1 µM [1] [%] | Dmax at 3 µM [1] [%] | Dmax at 6 µM [1] [%] | Dmax at 0.5 µM [2] [%] | Dmax at 1 µM [2] [%] | Dmax at 3 µM [2] [%] | Dmax at 6 µM [2] [%] |
| --- | --- | --- | --- | --- | --- | --- | --- | --- | --- | --- | --- | --- | --- | --- | --- | --- |
| CN1C[C@H]2CN(c3nccc(Nc4cc(C5CC5)[nH]n4)n3)C[C@H]21 [Compound 40, N-(5-Cyclopropyl-1H-pyrazol-3-yl)-2-[(1S,5S)-6-methyl-3,6-diazabicyclo[3.2.0]heptan-3-yl]pyrimidin-4-amine] | – | – | < 20 | < 20 | < 20 | < 20 | – | < 20 | – | – | – | – | – | – | – | – |
| c1cc(Nc2cc(C3CC3)[nH]n2)nc(N2CCC3(CCNC3)C2)n1 (stereo not shown) [Compound 42, N-(5-Cyclopropyl-1H-pyrazol-3-yl)-2-(2,7-diazaspiro[4.4]nonan-2-yl)pyrimidin-4-amine] | 20 to 49 | 50 to 79 | 50 to 79 | 80 to 100 | < 20 | – | 80 to 100 | < 20 | – | – | – | – | – | – | – | – |
| CN1CC2(CCCN(c3nccc(Nc4cc(C5CC5)[nH]n4)n3)C2)C1 [Compound 43] | 20 to 49 | 20 to 49 | 20 to 49 | 50 to 79 | < 20 | 20 to 49 | < 20 | 20 to 49 | – | – | – | – | – | – | – | – |
| CN1CC2(CCN(c3nccc(Nc4cc(C5CC5)[nH]n4)n3)CC2)C1 [Compound 44, N-(5-Cyclopropyl-1H-pyrazol-3-yl)-2-(2-methyl-2,7-diazaspiro[3.5]nonan-7-yl)pyrimidin-4-amine] | – | < 20 | 20 to 49 | 80 to 100 | – | < 20 | 80 to 100 | – | – | – | – | – | – | – | – | – |
| CNCC12CCC(C1)N(c1nccc(Nc3cc(C4CC4)[nH]n3)n1)C2 (stereo not shown) [Compound 45, N-(5-Cyclopropyl-1H-pyrazol-3-yl)-2-[4-(methylaminomethyl)-2-azabicyclo[2.2.1]heptan-2-yl]pyrimidin-4-amine] | 80 to 100 | 80 to 100 | 80 to 100 | 80 to 100 | 80 to 100 | 80 to 100 | 80 to 100 | 80 to 100 | – | – | – | – | – | – | – | – |
| CN(C)CCCN(C)c1nccc(Nc2cc(C3CC3)[nH]n2)n1 [Compound 48, N^4-(5-cyclopropyl-1H-pyrazol-3-yl)-N^2-[3-(dimethylamino)propyl]-N^2-methyl-pyrimidine-2,4-diamine] | < 20 | < 20 | < 20 | < 20 | 20 to 49 | < 20 | 20 to 49 | – | – | – | – | – | – | – | – | – |
| c1cc(Nc2cc(C3CC3)[nH]n2)nc(N2C[C@H]3CN[C@H]3C2)n1 [Compound 53, N-(5-Cyclopropyl-1H-pyrazol-3-yl)-2-[(1R,5R)-3,6-diazabicyclo[3.2.0]heptan-3-yl]pyrimidin-4-amine] | – | – | – | < 20 | – | 20 to 49 | < 20 | – | – | – | – | – | – | – | – | – |
| c1cc(Nc2cc(C3CC3)[nH]n2)nc(N2CC(C3CNC3)C2)n1 [Compound 64, 2-[3-(Azetidin-3-yl)azetidin-1-yl]-N-(5-cyclopropyl-1H-pyrazol-3-yl)pyrimidin-4-amine] | < 20 | – | < 20 | 20 to 49 | < 20 | 20 to 49 | 20 to 49 | – | – | – | – | – | – | – | – | – |
| COCCNCC12CC(C1)N(c1nccc(Nc3cc(C4CCCC4)[nH]n3)n1)C2 [Compound 67, N-(5-Cyclopentyl-1H-pyrazol-3-yl)-2-[4-[(2-methoxyethylamino)methyl]-2-azabicyclo[2.1.1]hexan-2-yl]pyrimidin-4-amine] | – | – | – | – | – | – | – | – | < 20 | 50 to 79 | 80 to 100 | 80 to 100 | < 20 | < 20 | 80 to 100 | 80 to 100 |
| CS(=O)(=O)CCNCC12CC(C1)N(c1nccc(Nc3cc(C4CCCC4)[nH]n3)n1)C2 [Compound 68, N-(5-Cyclopentyl-1H-pyrazol-3-yl)-2-[4-[(2-methylsulfonylethylamino)methyl]-2-azabicyclo[2.1.1]hexan-2-yl]pyrimidin-4-amine] | < 20 | < 20 | 80 to 100 | 80 to 100 | < 20 | 80 to 100 | 80 to 100 | < 20 | – | – | – | – | – | – | – | – |
| CC1(NCC23CC(C2)N(c2nccc(Nc4cc(C5CCCC5)[nH]n4)n2)C3)COC1 [Compound 69, N-(5-Cyclopentyl-1H-pyrazol-3-yl)-2-[4-[[(3-methyloxetan-3-yl)amino]methyl]-2-azabicyclo[2.1.1]hexan-2-yl]pyrimidin-4-amine] | 20 to 49 | 20 to 49 | 80 to 100 | 80 to 100 | – | 80 to 100 | 80 to 100 | < 20 | – | – | – | – | – | – | – | – |

More lines, main results first:

| Dmax at 0.5 µM ([1]; SKNBE2 cells, 24 h, 0.5 μM) [%] | Dmax at 1 µM ([1]; SKNBE2 cells, 24 h, 1 μM) [%] | Dmax at 3 µM ([1]; SKNBE2 cells, 24 h, 3 μM) [%] | Dmax at 6 µM ([1]; SKNBE2 cells, 24 h, 6 μM) [%] | Dmax at 1 µM ([2]; L-363 cells, 24 h, 1 μM) [%] | Dmax at 3 µM ([2]; L-363 cells, 24 h, 3 μM) [%] | Dmax at 6 µM ([2]; L-363 cells, 24 h, 6 μM) [%] | Dmax at 0.5 µM ([2]; L-363 cells, 24 h, 0.5 μM) [%] | Compound | Dmax at 0.5 µM [1] [%] | Dmax at 1 µM [1] [%] | Dmax at 3 µM [1] [%] | Dmax at 6 µM [1] [%] | Dmax at 0.5 µM [2] [%] | Dmax at 1 µM [2] [%] | Dmax at 3 µM [2] [%] | Dmax at 6 µM [2] [%] |
| --- | --- | --- | --- | --- | --- | --- | --- | --- | --- | --- | --- | --- | --- | --- | --- | --- |
| 20 to 49 | 50 to 79 | 80 to 100 | 80 to 100 | < 20 | 50 to 79 | 80 to 100 | – | CNC[C@H]1CCN(c2nccc(Nc3cc(C4CCCC4)[nH]n3)n2)C1 [Compound 35, N-(5-cyclopentyl-1H-pyrazol-3-yl)-2-[(3R)-3-(methylaminomethyl)pyrrolidin-1-yl]pyrimidin-4-amine] | – | – | – | – | – | – | – | – |
| 20 to 49 | < 20 | 80 to 100 | 80 to 100 | 20 to 49 | < 20 | 80 to 100 | < 20 | CNC[C@@H]1CCN(c2nccc(Nc3cc(C4CCCC4)[nH]n3)n2)C1 [Compound 36, N-(5-cyclopentyl-1H-pyrazol-3-yl)-2-[(3S)-3-(methylaminomethyl)pyrrolidin-1-yl]pyrimidin-4-amine] | – | – | – | – | – | – | – | – |
| 20 to 49 | 20 to 49 | 50 to 79 | 80 to 100 | < 20 | < 20 | – | – | CNC[C@@H]1CCCN(c2nccc(Nc3cc(C4CC4)[nH]n3)n2)C1 [Compound 37, N-(5-cyclopropyl-1H-pyrazol-3-yl)-2-[(3S)-3-(methylaminomethyl)-1-piperidyl]pyrimidin-4-amine] | – | – | – | – | – | – | – | – |
| 20 to 49 | 20 to 49 | 20 to 49 | 50 to 79 | < 20 | < 20 | < 20 | < 20 | CN1CC(C2CCN(c3nccc(Nc4cc(C5CC5)[nH]n4)n3)C2)C1 (stereo not shown) [Compound 38, N-(5-Cyclopropyl-1H-pyrazol-3-yl)-2-[3-(1-methylazetidin-3-yl)pyrrolidin-1-yl]pyrimidin-4-amine] | – | – | – | – | – | – | – | – |
| < 20 | < 20 | 20 to 49 | 50 to 79 | < 20 | < 20 | 50 to 79 | < 20 | CN1CC(C2CN(c3nccc(Nc4cc(C5CCCC5)[nH]n4)n3)C2)C1 [Compound 65, N-(5-Cyclopentyl-1H-pyrazol-3-yl)-2-[3-(1-methylazetidin-3-yl)azetidin-1-yl]pyrimidin-4-amine] | – | – | – | – | – | – | – | – |
| – | 80 to 100 | 80 to 100 | 80 to 100 | – | 80 to 100 | 80 to 100 | < 20 | NCC12CC(C1)N(c1nccc(Nc3cc(C4CCCC4)[nH]n3)n1)C2 [Compound 66, 2-[4-(aminomethyl)-2-azabicyclo[2.1.1]hexan-2-yl]-N-(5-cyclopentyl-1H-pyrazol-3-yl)pyrimidin-4-amine] | – | – | – | – | – | – | – | – |
